Source: ChEMBL document CHEMBL5696442, “Discovery of type II inhibitors of TGFβ-activated kinase 1 (TAK1) and mitogen-activated protein kinase kinase kinase kinase 2 (MAP4K2)” (J Med Chem, 2015)
Activity calls are given as the source filed them. The rule behind the calls is not given here.

Assays:
Ephrin type-A receptor 2 = Ephrin type-A receptor 2 (Homo sapiens, UniProt P29317); assay: Inhibition of EphA2 ACT labeling site in human Huh-7 cell lysate at 1 uM by KiNativ Profiling analysis relative to control; type: subcellular
[1] = molecular target: Cyclin-dependent kinase 3 (Homo sapiens) (UniProt Q00526); assay: Inhibition of CDK3 (unknown origin) at 1 uM by Ambit Kinomescan binding assay relative to control; values are per cent of control
[2] = molecular target: Tyrosine-protein kinase JAK1 (Homo sapiens) (UniProt P23458); assay: Inhibition of JAK1 JH1catalytic domain (unknown origin) at 1 uM by Ambit Kinomescan binding assay relative to control
Sequence of Tyrosine-protein kinase JAK1 (Homo sapiens) (P23458 whole entry, the tested form may be a part): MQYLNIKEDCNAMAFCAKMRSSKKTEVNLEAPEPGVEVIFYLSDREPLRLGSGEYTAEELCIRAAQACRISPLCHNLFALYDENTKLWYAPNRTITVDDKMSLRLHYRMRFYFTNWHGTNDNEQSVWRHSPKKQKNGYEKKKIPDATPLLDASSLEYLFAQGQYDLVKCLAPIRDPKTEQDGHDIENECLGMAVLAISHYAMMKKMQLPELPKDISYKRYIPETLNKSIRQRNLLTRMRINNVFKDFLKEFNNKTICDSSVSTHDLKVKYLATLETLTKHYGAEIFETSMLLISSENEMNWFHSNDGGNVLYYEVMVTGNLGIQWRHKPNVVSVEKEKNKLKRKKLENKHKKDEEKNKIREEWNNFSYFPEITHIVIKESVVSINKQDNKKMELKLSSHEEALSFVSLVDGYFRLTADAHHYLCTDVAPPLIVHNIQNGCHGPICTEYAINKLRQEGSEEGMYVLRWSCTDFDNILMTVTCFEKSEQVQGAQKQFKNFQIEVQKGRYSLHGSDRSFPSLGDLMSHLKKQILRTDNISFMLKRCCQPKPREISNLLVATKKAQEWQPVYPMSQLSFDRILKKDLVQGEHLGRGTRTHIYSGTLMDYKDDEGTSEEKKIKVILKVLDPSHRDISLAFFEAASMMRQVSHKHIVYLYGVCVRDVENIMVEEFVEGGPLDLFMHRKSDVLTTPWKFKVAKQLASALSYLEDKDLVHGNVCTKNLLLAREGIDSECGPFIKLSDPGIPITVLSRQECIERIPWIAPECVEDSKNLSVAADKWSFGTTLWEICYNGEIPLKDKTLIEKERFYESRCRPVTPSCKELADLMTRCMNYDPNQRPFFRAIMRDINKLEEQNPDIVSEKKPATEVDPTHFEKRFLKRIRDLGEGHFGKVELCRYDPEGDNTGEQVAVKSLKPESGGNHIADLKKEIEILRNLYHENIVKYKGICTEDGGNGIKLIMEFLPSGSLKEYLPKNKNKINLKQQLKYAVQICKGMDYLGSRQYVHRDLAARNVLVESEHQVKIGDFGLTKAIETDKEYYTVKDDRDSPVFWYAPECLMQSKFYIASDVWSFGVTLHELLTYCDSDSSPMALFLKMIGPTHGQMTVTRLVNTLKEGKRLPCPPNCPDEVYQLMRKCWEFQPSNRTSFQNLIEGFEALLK

[3] = molecular target: Mitogen-activated protein kinase 3 (Homo sapiens) (UniProt P27361); assay: Inhibition of Erk1 Lys2 labeling site harbouring YIHSANVLHRDLKPSNLLINTTCDLK in human A-375 cells at 0.05 uM by KiNativ Profiling analysis relative to control; type: cell-based
[4] = molecular target: Serine/threonine-protein kinase Nek3 (Homo sapiens) (UniProt P51956); assay: Inhibition of NEK3 (unknown origin) at 1 uM by Ambit Kinomescan binding assay relative to control; values are per cent of control
Sequence of Serine/threonine-protein kinase Nek3 (Homo sapiens) (P51956 whole entry): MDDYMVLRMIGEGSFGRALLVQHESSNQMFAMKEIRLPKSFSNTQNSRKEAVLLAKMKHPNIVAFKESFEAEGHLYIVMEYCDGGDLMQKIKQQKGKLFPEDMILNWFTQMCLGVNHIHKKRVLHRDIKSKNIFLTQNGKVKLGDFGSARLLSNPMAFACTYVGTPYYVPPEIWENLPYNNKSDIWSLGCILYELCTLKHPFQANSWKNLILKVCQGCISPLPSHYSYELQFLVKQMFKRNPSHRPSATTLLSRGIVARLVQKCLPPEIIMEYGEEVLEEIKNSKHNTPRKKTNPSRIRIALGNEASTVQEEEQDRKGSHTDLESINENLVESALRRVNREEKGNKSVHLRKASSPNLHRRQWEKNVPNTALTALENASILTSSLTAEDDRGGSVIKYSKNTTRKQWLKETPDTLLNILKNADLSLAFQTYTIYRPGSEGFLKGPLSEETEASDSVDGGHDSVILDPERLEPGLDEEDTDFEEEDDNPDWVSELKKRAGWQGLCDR

[5] = molecular target: Serine/threonine-protein kinase 38-like (Homo sapiens) (UniProt Q9Y2H1); assay: Inhibition of NDR2 Lys1 labeling site harbouring DTGHIYAMKILR in human A-375 cells at 5 uM by KiNativ Profiling analysis relative to control; type: cell-based
[6] = molecular target: 5'-AMP-activated protein kinase catalytic subunit alpha-1 (Homo sapiens) (UniProt Q13131); assay: Inhibition of AMPKa1 Lys1 labeling site in human A-375 cells at 0.5 uM by KiNativ Profiling analysis relative to control; type: cell-based
Sequence of 5'-AMP-activated protein kinase catalytic subunit alpha-1 (Homo sapiens) (Q13131 whole entry, looked up): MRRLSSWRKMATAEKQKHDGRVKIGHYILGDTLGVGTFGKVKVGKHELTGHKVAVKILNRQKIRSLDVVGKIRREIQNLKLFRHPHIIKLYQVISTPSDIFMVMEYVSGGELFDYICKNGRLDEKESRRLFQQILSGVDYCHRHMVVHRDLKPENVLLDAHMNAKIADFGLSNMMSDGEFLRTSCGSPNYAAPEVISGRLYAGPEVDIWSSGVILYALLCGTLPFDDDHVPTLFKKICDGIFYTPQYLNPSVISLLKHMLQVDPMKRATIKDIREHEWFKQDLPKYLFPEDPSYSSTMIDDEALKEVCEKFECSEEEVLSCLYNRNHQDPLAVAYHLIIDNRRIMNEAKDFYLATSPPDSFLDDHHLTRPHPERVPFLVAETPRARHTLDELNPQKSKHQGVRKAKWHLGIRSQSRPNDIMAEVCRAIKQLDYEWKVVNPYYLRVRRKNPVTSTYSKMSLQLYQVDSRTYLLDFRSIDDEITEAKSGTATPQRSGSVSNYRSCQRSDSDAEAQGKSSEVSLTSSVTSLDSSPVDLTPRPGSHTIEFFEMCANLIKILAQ

[7] = molecular target: RAC-gamma serine/threonine-protein kinase (Homo sapiens) (UniProt Q9Y243); assay: Inhibition of AKT3 (unknown origin) at 10 uM by Ambit Kinomescan binding assay
Sequence of RAC-gamma serine/threonine-protein kinase (Homo sapiens) (Q9Y243 whole entry): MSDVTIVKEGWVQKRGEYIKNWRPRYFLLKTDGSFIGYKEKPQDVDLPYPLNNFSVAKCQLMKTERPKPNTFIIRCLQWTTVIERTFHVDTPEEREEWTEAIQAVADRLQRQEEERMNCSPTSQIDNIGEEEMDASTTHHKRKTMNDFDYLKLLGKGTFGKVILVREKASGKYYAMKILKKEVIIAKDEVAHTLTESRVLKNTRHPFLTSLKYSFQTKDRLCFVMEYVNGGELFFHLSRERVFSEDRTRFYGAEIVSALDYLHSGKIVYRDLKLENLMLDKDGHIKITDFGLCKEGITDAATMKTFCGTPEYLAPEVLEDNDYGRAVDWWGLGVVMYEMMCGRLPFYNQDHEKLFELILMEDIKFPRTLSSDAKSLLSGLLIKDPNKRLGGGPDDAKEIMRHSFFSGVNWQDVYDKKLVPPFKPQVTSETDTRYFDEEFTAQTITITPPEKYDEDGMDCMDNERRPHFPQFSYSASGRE

[8] = molecular target: Ephrin type-A receptor 3 (Homo sapiens) (UniProt P29320); assay: Inhibition of EPHA3 (unknown origin) at 10 uM by Ambit Kinomescan binding assay relative to control
[9] = molecular target: T1, Serine/threonine-protein kinase greatwall (Homo sapiens) (UniProt Q96GX5); assay: Inhibition of MASTL ATP labeling site in human Huh-7 cells at 1 uM by KiNativ Profiling analysis relative to control; type: cell-based
T1 sequence (whole entry): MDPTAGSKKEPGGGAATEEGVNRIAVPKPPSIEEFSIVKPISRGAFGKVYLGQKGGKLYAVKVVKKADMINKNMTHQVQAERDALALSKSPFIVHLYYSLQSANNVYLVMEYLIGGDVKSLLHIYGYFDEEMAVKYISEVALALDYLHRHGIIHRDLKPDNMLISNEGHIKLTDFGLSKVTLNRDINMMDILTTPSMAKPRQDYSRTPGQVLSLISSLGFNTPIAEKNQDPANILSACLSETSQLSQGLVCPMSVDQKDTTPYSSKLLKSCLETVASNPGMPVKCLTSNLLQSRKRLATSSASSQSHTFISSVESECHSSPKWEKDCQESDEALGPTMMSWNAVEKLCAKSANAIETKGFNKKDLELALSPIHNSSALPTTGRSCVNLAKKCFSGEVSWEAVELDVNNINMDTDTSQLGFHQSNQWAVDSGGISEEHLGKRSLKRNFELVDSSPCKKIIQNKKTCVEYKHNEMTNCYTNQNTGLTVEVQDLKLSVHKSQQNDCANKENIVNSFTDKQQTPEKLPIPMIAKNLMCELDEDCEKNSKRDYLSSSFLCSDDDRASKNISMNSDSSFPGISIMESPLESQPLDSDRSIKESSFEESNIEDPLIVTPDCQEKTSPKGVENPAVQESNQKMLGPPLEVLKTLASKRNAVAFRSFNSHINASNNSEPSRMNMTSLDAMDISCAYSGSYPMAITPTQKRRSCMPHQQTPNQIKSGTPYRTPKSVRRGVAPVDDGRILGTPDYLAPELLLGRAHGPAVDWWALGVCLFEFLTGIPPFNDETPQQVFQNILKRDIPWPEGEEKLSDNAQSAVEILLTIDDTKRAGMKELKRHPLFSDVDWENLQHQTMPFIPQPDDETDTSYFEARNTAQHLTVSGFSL

[10] = molecular target: Ribosomal protein S6 kinase alpha-3 (Homo sapiens) (UniProt P51812); assay: Inhibition of RSK2 Domain 2 K2 labeling site harbouring DLKPSNILYVDESGNPESIR in human Huh-7 cells at 10 uM by KiNativ Profiling analysis relative to control; type: cell-based
Sequence of Ribosomal protein S6 kinase alpha-3 (Homo sapiens) (P51812 whole entry, the tested form may be a part): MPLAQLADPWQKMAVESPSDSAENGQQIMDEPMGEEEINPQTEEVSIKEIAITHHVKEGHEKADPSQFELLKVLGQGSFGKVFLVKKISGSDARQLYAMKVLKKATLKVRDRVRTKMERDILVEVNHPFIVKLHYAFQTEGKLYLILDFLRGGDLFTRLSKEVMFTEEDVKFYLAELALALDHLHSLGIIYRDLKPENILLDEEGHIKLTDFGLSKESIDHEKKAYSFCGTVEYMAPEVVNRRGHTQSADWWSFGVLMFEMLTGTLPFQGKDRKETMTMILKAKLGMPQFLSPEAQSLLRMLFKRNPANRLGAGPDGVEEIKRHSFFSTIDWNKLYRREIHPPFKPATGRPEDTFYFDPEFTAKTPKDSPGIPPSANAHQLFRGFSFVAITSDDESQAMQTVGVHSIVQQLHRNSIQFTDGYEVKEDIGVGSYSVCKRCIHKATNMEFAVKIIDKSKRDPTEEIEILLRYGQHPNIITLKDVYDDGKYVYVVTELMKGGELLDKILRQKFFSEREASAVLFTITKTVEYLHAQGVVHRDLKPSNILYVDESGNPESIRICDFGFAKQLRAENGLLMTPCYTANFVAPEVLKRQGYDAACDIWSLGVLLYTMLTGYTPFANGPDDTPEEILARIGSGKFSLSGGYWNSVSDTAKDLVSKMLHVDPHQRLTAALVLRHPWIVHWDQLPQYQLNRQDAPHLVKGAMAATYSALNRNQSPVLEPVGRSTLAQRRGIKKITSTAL

[11] = molecular target: Tyrosine-protein kinase Lyn (Homo sapiens, UniProt P07948); assay: Inhibition of LYN (unknown origin) at 10 uM by Ambit Kinomescan binding assay relative to control; values are per cent of control
Sequence of Tyrosine-protein kinase Lyn (P07948 2-512 limits assumed): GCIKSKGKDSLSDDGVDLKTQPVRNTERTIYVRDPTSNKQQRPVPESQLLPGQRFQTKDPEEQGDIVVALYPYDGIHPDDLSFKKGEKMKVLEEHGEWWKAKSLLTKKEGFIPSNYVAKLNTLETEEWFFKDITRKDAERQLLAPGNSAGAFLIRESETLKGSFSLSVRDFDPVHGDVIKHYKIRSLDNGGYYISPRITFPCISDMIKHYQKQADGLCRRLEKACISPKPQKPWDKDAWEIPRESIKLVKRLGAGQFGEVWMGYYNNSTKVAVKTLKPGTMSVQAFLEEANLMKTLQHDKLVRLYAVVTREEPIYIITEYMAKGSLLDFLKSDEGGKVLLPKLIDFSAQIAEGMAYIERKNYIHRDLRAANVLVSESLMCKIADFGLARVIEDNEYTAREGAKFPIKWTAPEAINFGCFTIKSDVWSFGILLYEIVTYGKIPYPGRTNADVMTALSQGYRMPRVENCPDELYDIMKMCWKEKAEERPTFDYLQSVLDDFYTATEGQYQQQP

[12] = molecular target: Cyclin-dependent kinase 13 (Homo sapiens) (UniProt Q14004); assay: Inhibition of CHED K2 labeling site in human Huh-7 cells at 1 uM by KiNativ Profiling analysis relative to control; type: cell-based
[13] = molecular target: Protein-tyrosine kinase 2-beta (Homo sapiens) (UniProt Q14289); assay: Inhibition of PYK2 (unknown origin) at 10 uM by Ambit Kinomescan binding assay relative to control; values are per cent of control
Sequence of Protein-tyrosine kinase 2-beta (Homo sapiens) (Q14289 whole entry, looked up): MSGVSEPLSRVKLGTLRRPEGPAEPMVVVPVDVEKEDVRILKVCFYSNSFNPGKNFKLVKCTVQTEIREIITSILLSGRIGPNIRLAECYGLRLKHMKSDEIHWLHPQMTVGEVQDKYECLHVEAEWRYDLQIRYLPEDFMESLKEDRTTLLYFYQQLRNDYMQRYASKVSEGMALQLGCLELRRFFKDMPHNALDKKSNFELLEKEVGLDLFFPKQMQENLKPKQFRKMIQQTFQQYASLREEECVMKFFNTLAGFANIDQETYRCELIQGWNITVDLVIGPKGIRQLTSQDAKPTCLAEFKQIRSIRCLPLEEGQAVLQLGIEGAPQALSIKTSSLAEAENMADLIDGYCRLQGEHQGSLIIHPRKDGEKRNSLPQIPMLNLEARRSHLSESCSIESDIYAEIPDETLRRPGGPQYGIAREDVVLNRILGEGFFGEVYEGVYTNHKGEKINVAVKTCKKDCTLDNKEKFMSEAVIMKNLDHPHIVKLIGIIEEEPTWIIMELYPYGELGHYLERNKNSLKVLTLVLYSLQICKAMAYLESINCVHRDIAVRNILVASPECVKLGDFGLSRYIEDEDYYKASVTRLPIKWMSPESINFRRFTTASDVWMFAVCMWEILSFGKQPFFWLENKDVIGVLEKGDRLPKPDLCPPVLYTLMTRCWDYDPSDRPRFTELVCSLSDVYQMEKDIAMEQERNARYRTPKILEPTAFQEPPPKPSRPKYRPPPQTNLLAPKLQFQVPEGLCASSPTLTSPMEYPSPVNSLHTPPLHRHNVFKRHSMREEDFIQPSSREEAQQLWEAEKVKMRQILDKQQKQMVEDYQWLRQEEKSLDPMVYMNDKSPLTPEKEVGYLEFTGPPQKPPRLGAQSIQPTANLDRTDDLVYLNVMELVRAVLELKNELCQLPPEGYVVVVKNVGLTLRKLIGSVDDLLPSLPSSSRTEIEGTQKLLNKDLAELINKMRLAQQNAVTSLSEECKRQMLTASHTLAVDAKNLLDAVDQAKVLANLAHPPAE

[14] = molecular target: Serine/threonine-protein kinase MARK1 (Homo sapiens) (UniProt Q9P0L2); assay: Inhibition of MARK1 (unknown origin) at 10 uM by Ambit Kinomescan binding assay

CNc1cc(Oc2cc(C(=O)Nc3cc(N4CCN(C)CC4)cc(C(F)(F)F)c3)ccc2C)ncn1
inhibition (Ephrin type-A receptor 2): 25.1%

CCN1CCN(Cc2ccc(NC(=O)c3ccc(C)c(/C=C/c4cnc5[nH]ccc5c4OC)c3)cc2C(F)(F)F)CC1
% of control [1]: 100% | inhibition [2]: 76% | inhibition [3]: -5.4% | residual activity [4]: 79% | inhibition [5]: 20.7% | inhibition [6]: 20.3%

CCN1CCN(Cc2ccc(NC(=O)c3ccc(C)c(Oc4ccnc5[nH]ccc45)c3)cc2C(F)(F)F)CC1
inhibition [7]: inactive | inhibition [8]: 3.4% | inhibition [9]: 3.6% | inhibition [10]: 14.5% | percent of control [11]: 0.75% | inhibition [12]: inactive | residual activity [13]: 2.1% | inhibition [14]: inactive
